One molecule from the NIST ThermoML archive (doi:10.1016/j.jct.2018.01.019) can be followed below.

Numbers after ± are expanded uncertainties.

The conditions of the data set: Crystal 2; DSC.

Consider `O=[Si]=O` [silicon dioxide], for which the Triple point temperature was found to be 848 ± 2 K.
